In assay [1] the test system is CD81-enriched cell lines (astrocyte) vs. CD81-deficient cell lines (C6 glioma). The assay is described as follows: Antiproliferation of CD81-enriched astrocytes vs. CD81-deficient C6 glioma cells. The assay is classed as cell-based. Conditions: for astrocyte-selective antiproliferation: concentration range of 0.1 to 10 μM, astrocytes relative to CD81-deficient cell lines. An excerpt:
Further in accordance with the present invention, there are provided methods for synthesis of amantadine analogues by appending primary amines to 1-boraadamantane to evaluate such compounds for CD81 dependent antiproliferation of CD81-enriched cell lines (astrocyte) vs. CD81-deficient cell lines (C6 glioma). Specific details of the synthetic methods of the present invention as well as related data is now published in Wagner, Carl E. et al., Synthesis of-1-Boraadamantaneamine Derivatives with Selective Astrocyte vs C6 Glioma Antiproliferative Activity. A Novel Class of Anti-Hepatitis C Agents with Potential to Bind CD81, J.Med.Chem., Vol.46,2823-2833 (2003) and Wagner, Carl E., Syntheis and First Molecular Structure of a Bis-2-spiro-1boraadamantane Dirivative, Organic Letters, Vol. 6, No. 3, 313-316 (2004), copies of which are filed herewith and the entireties of which are expressly incorporated herein by reference.
The amantadine analogues of the present invention that bind to and activate CD81 may have the potential to prevent or treat HCV infections. Each compound's potential for preventive and therapeutic activity stems from the compound's potential to block viral attachment, virus-cell fusion or virus entry into host cells, or similarly counter potential mechanisms of HCV immune evasion. Out of a library of over 500 compounds including randomly selected small molecules and rationally designed small molecules, only the 1-boraadamantane amine compounds display a significant antiproliferative effect on the CD81-enriched astrocytes relative to the CD81-deficient cell lines. […] Additionally, structurally similar adamantane analogues to the active primary amine 1-boraadamantane complexes identified in this assay were synthesized for testing.
A variety of 1-boraadamatane amine complexes were synthesized by stoichiometric addition of a primary amine to 1-boraadamantane·THF. These complexes were subsequently evaluated for an antiproliferative effect on CD81-enriched cell lines to provide evidence for binding and activation of the CD81 receptor. Additional amantidine analogues structurally similar to the 1-boraadamantane amine complexes were also synthesized.

In a further assay the target is α4 β1/VCAM cell line (Homo sapiens, UniProt P05556+P13612). Particulars: reported in the literature; read-out: IC50 as antagonist for α4 β1/VCAM; cited from earlier work.
Chain of α4 β1/VCAM cell line (P13612 34-1032): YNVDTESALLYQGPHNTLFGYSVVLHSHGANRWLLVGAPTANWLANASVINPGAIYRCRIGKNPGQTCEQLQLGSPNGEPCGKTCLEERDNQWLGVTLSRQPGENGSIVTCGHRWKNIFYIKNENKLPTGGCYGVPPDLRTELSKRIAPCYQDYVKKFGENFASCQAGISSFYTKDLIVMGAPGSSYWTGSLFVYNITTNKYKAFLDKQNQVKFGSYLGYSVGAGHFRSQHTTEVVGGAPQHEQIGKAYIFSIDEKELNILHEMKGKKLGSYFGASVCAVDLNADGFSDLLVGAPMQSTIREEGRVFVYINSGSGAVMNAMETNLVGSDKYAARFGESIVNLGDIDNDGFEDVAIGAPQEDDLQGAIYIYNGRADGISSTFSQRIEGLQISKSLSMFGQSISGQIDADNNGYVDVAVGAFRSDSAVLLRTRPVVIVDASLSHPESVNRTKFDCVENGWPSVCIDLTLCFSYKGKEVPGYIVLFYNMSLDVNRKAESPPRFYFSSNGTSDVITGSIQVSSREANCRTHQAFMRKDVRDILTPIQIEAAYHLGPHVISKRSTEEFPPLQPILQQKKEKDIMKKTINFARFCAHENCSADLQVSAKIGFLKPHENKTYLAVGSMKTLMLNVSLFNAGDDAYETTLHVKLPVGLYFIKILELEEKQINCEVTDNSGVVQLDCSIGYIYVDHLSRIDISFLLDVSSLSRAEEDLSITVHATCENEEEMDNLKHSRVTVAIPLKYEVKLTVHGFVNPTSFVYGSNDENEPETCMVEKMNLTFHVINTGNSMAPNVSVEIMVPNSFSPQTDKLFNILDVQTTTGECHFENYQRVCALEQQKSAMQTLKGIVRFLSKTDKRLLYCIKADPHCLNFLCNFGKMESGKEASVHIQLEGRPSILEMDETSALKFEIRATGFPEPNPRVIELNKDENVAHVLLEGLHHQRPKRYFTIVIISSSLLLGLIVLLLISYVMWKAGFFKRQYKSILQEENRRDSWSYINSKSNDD
Chain of α4 β1/VCAM cell line (P05556 21-798): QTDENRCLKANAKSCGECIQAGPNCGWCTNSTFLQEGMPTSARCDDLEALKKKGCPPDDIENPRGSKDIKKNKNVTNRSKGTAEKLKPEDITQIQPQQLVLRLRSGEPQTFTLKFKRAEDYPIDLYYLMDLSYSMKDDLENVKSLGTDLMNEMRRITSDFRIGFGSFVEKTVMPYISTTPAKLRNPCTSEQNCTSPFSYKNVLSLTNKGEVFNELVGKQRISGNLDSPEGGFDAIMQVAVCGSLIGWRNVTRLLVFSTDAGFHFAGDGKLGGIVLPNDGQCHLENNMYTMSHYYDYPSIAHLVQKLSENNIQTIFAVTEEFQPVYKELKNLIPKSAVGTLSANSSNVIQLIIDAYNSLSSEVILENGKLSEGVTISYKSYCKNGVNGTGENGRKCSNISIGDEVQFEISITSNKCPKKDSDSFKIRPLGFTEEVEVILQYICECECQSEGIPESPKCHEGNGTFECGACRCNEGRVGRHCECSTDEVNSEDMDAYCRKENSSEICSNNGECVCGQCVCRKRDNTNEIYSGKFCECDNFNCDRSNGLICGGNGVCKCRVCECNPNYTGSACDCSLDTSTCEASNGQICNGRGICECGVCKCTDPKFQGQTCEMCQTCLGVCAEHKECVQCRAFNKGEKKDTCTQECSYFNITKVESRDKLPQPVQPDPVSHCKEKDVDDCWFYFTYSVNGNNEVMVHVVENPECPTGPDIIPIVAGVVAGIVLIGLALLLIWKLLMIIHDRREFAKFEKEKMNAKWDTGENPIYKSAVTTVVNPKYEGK

Some results are limits rather than exact numbers.

For the compound “1-boraadamantane 1-aminoadamantane complex [Complex 1]”, the “inhibiting the proliferation of the astrocyte cell line (ranking)” value in assay [1] (cell based assay, astrocyte cell line) was “most active compounds”. On to `O=C(O)[C@H](Cc1ccccc1)NC(=O)C12CC3CC(CC(C3)C1)C2` [Complex 15], for which the “antiproliferative character (ranking)” value in assay [1] (0.1 to 10 μM range of concentration) was “greatest antiproliferative character”. For the same compound, the astrocyte-selective antiproliferation entry in assay [1] was “astrocyte-selective antiproliferation”. Regarding `CC(C)C[C@H](NC(=O)C12CC3CC(CC(C3)C1)C2)C(=O)O` [Complex 16], in assay [1], the astrocyte-selective antiproliferation entry is recorded as “astrocyte-selective antiproliferation”. Turning to `Cl.NC12CC3CC(CC(C3)C1)C2` [amantadine, 1-aminoadamantane hydrochloride, reference compound], in assay [1] (at high concentrations (>100 _M)), the “reduction of astrocyte proliferation” value was “only slightly reduces astrocyte proliferation”.

As to `COC(=O)C(CSSCC(NC(=O)C12CC3CC(CC(C3)C1)C2)C(=O)OC)NC(=O)C12CC3CC(CC(C3)C1)C2` [Compound 25, N,N-diadamantylcarbonyl-L-cystine methyl ester], the IC50 at α4 β1/VCAM cell line is above 800 µM. As to `O=C(O)C(CSSCC(NC(=O)C12CC3CC(CC(C3)C1)C2)C(=O)O)NC(=O)C12CC3CC(CC(C3)C1)C2` (stereo not shown) [Compound 26], the IC50 at α4 β1/VCAM cell line is 7.3 µM.

Source of the values: patent publication US20040242542A1, “Compositions and methods for inducing CD81 dependent antiproliferation and for treating hepatitis C and other disorders” (The Regents of the University of California, priority 2003, published 2004).
